Measurements as given in ChEMBL document CHEMBL1201862, “PubChem BioAssay data set” (2004).
Activity calls are given as the source filed them.

Experiments:
[1] = molecular target: Neuropeptides B/W receptor type 1 (Homo sapiens, UniProt P48145); test: Fluorescence-based dose response cell-based high throughput screening assay to identify antagonists of the G-protein coupled receptor 7 (GPR7). [Related pubchem assays: 1952 (Screening assay (GPR7 antagonists).), 1880 (Summary AID.)]; format: functional
[2] = molecular target: T1, Neuropeptide Y receptor type 2 (Homo sapiens, UniProt P49146); test: NPY-Y2 antagonist potency, selectivity check, dose response, counter-screen for NPY-Y1 antagonist project, cell-based (AID 1278); format: functional
T1 sequence (P49146 whole entry): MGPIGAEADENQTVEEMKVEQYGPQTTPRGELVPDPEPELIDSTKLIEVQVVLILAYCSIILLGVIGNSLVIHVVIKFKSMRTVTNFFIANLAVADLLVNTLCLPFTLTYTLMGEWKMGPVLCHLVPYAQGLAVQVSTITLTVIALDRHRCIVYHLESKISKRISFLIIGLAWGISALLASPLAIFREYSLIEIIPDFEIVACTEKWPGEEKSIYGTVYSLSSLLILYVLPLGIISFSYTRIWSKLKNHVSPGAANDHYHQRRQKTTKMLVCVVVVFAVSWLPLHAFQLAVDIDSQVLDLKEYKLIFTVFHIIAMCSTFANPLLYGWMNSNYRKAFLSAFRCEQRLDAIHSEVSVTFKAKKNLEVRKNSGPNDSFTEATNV

[3] = molecular target: Melanin-concentrating hormone receptor 1 (Homo sapiens, UniProt Q99705); test: Fluorescence-based counterscreen for antagonists of the G-protein coupled receptor 7 (GPR7): cell-based high throughput dose response assay to identify antagonists of the melanin-concentrating hormone receptor 1 (MCHR1).; format: functional
[4] = molecular target: T2, Neuropeptide Y receptor type 1 (Homo sapiens, UniProt P25929); test: NPY-Y1 receptor antagonist potency, dose response, cell-based (AID 1277); format: functional
T2 sequence (P25929 whole entry): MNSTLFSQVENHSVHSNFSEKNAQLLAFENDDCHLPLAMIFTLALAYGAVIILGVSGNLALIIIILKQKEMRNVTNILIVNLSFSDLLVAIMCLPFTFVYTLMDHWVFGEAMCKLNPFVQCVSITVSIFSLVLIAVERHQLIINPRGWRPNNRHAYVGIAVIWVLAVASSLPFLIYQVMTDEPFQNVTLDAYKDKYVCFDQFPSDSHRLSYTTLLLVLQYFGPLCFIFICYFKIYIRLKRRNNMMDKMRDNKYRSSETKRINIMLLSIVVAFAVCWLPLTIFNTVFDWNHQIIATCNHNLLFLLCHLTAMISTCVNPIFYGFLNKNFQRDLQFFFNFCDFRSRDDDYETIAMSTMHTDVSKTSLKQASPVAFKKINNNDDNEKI

[5] = molecular target: Glyceraldehyde-3-phosphate dehydrogenase (Homo sapiens, UniProt P04406)
[6] = molecular target: T3, Bcl-2-related protein A1 (Mus musculus, UniProt Q07440); test: Bfl-1 inhibitors blocking BH3 peptide binding, confirmation, biochemical, TR-FRET, mouse Bfl-1 (AID 621);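 further: TR-FRET binding of GST-Bfl-1 to FITC-labelled Bid peptide via terbium antibody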
T3 sequence (Q07440 whole entry): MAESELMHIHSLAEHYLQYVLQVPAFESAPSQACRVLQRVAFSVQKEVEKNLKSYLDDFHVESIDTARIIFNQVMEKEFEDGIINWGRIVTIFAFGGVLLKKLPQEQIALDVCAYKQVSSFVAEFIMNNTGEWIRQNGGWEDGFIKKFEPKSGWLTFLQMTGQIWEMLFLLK

[7] = molecular target: T3, Bcl-2-related protein A1; test: Bfl-1 binding inhibitors, SAR follow-up, biochemical, fluorescence polarization (AID 1070)
[8] = molecular target: T4, Nucleotide-binding oligomerization domain-containing protein 1 (Homo sapiens, UniProt Q9Y239); test: SAR analysis of compounds that inhibit NOD1 - Set 3. [Related pubchem assays (depositor defined):AID1566, AID1575, AID1578, AID1849, AID1852, AID2333, AID2335, AID2466]; format: functional
T4 sequence (Q9Y239 whole entry): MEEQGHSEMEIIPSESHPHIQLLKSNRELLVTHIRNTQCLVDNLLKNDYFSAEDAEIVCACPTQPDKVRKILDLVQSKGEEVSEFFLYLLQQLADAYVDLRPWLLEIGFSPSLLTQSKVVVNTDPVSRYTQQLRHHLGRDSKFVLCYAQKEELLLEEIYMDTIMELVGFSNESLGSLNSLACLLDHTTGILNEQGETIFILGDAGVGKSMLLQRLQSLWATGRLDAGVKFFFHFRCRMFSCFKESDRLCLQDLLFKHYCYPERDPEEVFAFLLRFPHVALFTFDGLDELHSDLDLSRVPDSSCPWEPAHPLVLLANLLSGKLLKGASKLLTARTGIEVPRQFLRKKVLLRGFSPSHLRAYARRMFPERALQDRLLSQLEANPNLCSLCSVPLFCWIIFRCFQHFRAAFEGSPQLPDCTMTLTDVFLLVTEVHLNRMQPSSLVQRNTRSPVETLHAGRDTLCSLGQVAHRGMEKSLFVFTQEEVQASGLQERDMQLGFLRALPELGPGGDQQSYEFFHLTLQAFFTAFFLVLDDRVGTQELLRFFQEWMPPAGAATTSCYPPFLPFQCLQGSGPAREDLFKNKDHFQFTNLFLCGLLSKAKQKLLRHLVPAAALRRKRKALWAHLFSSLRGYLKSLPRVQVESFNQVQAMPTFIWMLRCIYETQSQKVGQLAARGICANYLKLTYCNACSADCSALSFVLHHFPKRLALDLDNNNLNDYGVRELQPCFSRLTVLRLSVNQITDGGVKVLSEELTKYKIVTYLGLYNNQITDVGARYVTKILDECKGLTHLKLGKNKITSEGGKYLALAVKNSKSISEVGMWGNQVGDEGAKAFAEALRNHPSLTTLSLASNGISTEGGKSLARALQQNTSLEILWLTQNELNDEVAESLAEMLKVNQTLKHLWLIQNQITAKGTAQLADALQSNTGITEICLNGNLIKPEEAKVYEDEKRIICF

[9] = molecular target: Tumor necrosis factor (Homo sapiens, UniProt P01375); test: TNFa-triggered NF-kB activation inhibitors, SAR follow-up, cell-based, set 3 (AID 2801); format: functional
[10] = system: HEK293; test: SAR analysis of compounds that are cytotoxic to HEK293 - Set 3. [Related pubchem assays (depositor defined):AID1575, AID1578, AID1848, AID1849, AID2001, AID2333, AID2334, AID2335, AID2337, AID2469]; format: functional, cell-based; details: Homo sapiens
[11] = molecular target: Nucleotide-binding oligomerization domain-containing protein 2 (Homo sapiens, UniProt Q9HC29); test: NOD2 signaling inhibitors, analog potency, SAR follow-up, cell-based, set 3 (AID 2799); format: functional
[12] = system: Vero; test: cytotoxicity of synthesized analogs in Vero 76, SAR follow-up, cytotoxicity control for West Nile virus antiviral project, Vero 76 cells (AID 2414); format: functional; details: Chlorocebus sabaeus
[13] = system: Vero; test: cytotoxicity of synthesized analogs in Vero cells, SAR follow-up, cytotoxicity control for West Nile virus antiviral project, cell-based, set II (AID 2402); format: functional; details: Chlorocebus sabaeus
[14] = A Cell Based Assay for the Identification of Probe candidate Compounds with Anti- Venezuelan Equine Encephalitis virus. [Related pubchem assays: 2409, 2419, 1621, 2238, 2405, 2024, 2065, 2402, 2414, 1635, 1650, 2244 ]; format: functional
[15] = molecular target: NADPH oxidase 1 (Homo sapiens, UniProt Q9Y5S8); format: functional, cell-based;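 further: Cell-based assay with luminescence read-out, IC50 derived from inhibitor dose-response curves; intracellular ROS from endogenous NOX1 in intact HT29 colon cancer cells; potency of inhibitors that lower the ROS luminescence signal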
[16] = polyadenylation inhibitors in yeast reporter, dose response, luminescence, S. cerevisiae SKY197-pL101 (AID 2525); format: functional, cell-based
[17] = Luminescence Cell-Based Dose Confirmation HTS to Identify Inhibitors of Polyadenylation.; format: functional
[18] = molecular target: Protein-tyrosine kinase 2-beta (Homo sapiens, UniProt Q14289);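 further: potency of inhibitors of PYK2 kinase phosphorylation of poly-GT substrate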
[19] = molecular target: T5, Bcl-2-like protein 10 (Homo sapiens, UniProt Q9HD36); test: Biochemical TR3 FP assay of Bcl-B inhibitor potency, EC50 (AID 1243); format: functional
T5 sequence (Q9HD36 whole entry): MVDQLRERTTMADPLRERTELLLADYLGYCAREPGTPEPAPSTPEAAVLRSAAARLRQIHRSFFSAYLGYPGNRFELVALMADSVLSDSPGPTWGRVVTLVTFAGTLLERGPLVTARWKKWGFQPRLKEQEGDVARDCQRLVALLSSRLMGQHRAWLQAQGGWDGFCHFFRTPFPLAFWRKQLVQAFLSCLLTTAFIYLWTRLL

[20] = molecular target: Lysosomal acid glucosylceramidase (Homo sapiens, UniProt P04062); test: Dose response cell-based high throughput screening assay to identify enhancers of beta-glucosidase activity. [Related pubchem assays: 784 ]; format: functional
[21] = molecular target: Photoreceptor-specific nuclear receptor (Homo sapiens, UniProt Q9Y5X4); format: functional;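 further: potency for compounds that break the NR2E3 corepressor complex and count as activators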
[22] = molecular target: Peroxisome proliferator-activated receptor gamma/Nuclear receptor corepressor 2 (Homo sapiens, UniProt P37231+Q9Y618); format: functional
[23] = system: Streptococcus sp. 'group A'; test: growth inhibition of control SK(-) GAS strain, dose response, counter-screen for streptokinase expression inhibitor project, luminescence, kanamycin, BacTiterGlo, confirmation (AID 1900); format: functional, organism-based
[24] = cells; format: functional, cell-based
[25] = Luminescence-based counterscreen assay for KLF5 inhibitors: dose response cell-based high throughput screening assay to identify cytotoxic compounds using the IEC-6 intestinal epithelial cell line. [Related pubchem assays: 1700 (Primary screen.), 1834 (Confirmation screen.), 1858 (Summary AID.), 1905 (Counterscreen.)]; format: functional
[26] = cells; format: functional, cell-based; remark: listed apart in the source
[27] = system: Streptococcus; test: Group A Streptococcus viability loss, dose response, counter-screen for streptokinase expression inhibitor project, luminescence, BacTiterGlo (AID 1915); format: functional, organism-based;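 further: potency for reduction of bacterial viability or growth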
[28] = molecular target: Nonstructural protein 1 (Influenza A virus, UniProt Q194T2); format: functional, Influenza A virus (A/California/07/2009(H1N1))
[29] = molecular target: T6, Alkaline phosphatase, tissue-nonspecific isozyme (Homo sapiens, UniProt P05186)
T6 sequence (P05186 whole entry): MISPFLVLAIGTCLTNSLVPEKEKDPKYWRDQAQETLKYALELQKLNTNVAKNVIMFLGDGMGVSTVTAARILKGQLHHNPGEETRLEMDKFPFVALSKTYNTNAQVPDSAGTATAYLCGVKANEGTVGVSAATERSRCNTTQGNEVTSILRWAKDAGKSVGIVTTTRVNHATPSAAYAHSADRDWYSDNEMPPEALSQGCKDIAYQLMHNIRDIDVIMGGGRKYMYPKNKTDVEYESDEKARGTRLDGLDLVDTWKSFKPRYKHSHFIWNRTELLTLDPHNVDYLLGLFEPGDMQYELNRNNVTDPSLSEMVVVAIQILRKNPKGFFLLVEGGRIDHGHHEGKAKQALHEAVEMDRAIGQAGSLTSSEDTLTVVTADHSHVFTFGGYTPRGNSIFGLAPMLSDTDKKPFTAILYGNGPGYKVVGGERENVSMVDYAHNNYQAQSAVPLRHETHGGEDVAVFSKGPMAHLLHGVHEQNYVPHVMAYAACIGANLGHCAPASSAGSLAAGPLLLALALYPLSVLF

Chain of Lysosomal acid glucosylceramidase (P04062 whole entry): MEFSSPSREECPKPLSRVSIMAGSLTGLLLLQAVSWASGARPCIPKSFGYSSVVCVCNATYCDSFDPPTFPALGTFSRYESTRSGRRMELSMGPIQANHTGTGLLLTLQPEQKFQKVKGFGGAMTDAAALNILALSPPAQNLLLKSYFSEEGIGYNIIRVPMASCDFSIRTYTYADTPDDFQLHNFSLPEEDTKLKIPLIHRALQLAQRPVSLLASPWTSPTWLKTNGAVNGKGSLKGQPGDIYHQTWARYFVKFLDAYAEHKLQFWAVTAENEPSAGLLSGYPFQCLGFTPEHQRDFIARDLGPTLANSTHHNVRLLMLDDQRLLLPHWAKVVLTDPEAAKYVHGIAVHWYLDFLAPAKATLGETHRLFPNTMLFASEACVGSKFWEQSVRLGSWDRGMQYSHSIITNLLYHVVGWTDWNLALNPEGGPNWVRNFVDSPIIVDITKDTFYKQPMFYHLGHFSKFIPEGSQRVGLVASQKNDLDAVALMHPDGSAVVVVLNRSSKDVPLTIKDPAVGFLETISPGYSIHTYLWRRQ
Chain of Nonstructural protein 1 (Q194T2 whole entry): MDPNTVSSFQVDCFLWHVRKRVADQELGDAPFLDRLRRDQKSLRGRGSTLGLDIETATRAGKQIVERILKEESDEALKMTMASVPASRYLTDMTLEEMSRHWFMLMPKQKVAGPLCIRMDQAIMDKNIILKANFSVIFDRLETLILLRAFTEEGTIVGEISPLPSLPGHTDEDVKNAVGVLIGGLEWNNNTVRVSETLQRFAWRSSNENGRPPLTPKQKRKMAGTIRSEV
Chain of Photoreceptor-specific nuclear receptor (Q9Y5X4 whole entry): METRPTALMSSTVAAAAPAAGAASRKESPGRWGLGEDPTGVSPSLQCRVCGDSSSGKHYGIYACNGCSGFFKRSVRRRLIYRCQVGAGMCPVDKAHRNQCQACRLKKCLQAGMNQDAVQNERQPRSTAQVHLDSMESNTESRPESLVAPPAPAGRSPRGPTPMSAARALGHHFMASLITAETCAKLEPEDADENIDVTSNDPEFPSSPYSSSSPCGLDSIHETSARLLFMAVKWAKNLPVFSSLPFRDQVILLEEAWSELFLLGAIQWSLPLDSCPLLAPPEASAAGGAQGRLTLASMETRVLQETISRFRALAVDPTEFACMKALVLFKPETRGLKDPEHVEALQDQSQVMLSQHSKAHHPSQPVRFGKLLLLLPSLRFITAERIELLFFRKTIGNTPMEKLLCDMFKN
Chain of Glyceraldehyde-3-phosphate dehydrogenase (P04406 whole entry): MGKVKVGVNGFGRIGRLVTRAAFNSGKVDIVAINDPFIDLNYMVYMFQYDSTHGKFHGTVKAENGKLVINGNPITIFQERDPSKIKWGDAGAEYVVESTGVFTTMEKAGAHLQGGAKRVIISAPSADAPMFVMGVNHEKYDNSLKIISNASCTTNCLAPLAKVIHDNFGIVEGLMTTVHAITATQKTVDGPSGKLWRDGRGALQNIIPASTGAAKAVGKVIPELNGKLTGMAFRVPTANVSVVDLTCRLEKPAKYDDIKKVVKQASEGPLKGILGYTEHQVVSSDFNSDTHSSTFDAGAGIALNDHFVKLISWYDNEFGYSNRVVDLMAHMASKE
Chain of Melanin-concentrating hormone receptor 1 (Q99705 whole entry): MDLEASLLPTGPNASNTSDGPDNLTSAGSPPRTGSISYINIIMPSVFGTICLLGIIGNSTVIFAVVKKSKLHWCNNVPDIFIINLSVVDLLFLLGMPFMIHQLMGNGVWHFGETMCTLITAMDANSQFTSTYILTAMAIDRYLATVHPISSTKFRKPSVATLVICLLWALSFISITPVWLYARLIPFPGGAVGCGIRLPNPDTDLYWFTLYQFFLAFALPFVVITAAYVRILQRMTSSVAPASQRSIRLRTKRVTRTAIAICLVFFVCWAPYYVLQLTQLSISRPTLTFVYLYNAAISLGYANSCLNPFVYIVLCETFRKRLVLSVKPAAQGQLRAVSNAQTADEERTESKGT
Chain of Protein-tyrosine kinase 2-beta (Q14289 whole entry): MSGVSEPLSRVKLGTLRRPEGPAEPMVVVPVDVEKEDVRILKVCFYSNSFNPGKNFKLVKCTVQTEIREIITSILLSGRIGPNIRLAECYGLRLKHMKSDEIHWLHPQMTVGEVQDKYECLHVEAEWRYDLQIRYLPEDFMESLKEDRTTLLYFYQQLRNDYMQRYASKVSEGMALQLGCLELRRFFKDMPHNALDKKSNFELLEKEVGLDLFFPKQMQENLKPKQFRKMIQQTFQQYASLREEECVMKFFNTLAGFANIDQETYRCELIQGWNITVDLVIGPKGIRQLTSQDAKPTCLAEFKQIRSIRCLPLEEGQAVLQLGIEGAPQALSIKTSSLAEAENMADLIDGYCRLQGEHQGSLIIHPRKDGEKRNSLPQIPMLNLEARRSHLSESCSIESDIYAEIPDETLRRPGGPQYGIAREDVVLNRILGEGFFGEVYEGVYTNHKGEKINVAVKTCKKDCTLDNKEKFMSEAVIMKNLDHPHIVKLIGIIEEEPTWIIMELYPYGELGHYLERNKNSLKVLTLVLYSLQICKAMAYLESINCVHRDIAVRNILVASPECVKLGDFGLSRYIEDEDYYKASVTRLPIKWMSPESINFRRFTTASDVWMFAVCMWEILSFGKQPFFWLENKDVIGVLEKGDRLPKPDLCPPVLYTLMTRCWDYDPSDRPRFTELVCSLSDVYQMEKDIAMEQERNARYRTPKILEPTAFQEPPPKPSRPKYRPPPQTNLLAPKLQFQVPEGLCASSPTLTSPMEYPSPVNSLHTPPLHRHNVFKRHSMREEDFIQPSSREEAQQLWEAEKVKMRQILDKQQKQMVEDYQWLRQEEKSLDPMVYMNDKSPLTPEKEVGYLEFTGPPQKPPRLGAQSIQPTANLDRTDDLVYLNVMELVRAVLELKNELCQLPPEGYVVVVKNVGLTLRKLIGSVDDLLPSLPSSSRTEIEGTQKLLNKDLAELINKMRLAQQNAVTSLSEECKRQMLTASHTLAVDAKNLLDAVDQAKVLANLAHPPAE
Chain of Tumor necrosis factor (P01375 whole entry): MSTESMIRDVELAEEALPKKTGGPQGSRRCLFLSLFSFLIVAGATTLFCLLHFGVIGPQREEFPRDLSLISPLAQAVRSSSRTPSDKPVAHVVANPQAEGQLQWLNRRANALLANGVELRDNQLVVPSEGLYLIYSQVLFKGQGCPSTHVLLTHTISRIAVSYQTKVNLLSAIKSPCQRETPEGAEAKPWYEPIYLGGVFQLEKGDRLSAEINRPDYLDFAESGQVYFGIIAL
Chain of Neuropeptides B/W receptor type 1 (P48145 whole entry): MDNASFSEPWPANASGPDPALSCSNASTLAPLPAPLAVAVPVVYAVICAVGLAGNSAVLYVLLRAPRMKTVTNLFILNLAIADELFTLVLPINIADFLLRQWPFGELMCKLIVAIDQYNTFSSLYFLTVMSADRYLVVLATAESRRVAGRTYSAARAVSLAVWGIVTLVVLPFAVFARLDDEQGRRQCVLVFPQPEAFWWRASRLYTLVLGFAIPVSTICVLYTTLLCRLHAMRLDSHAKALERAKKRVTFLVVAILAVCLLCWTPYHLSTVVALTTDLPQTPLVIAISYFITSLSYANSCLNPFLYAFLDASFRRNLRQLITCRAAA
Chain of Nucleotide-binding oligomerization domain-containing protein 2 (Q9HC29 whole entry, the tested form may be a part): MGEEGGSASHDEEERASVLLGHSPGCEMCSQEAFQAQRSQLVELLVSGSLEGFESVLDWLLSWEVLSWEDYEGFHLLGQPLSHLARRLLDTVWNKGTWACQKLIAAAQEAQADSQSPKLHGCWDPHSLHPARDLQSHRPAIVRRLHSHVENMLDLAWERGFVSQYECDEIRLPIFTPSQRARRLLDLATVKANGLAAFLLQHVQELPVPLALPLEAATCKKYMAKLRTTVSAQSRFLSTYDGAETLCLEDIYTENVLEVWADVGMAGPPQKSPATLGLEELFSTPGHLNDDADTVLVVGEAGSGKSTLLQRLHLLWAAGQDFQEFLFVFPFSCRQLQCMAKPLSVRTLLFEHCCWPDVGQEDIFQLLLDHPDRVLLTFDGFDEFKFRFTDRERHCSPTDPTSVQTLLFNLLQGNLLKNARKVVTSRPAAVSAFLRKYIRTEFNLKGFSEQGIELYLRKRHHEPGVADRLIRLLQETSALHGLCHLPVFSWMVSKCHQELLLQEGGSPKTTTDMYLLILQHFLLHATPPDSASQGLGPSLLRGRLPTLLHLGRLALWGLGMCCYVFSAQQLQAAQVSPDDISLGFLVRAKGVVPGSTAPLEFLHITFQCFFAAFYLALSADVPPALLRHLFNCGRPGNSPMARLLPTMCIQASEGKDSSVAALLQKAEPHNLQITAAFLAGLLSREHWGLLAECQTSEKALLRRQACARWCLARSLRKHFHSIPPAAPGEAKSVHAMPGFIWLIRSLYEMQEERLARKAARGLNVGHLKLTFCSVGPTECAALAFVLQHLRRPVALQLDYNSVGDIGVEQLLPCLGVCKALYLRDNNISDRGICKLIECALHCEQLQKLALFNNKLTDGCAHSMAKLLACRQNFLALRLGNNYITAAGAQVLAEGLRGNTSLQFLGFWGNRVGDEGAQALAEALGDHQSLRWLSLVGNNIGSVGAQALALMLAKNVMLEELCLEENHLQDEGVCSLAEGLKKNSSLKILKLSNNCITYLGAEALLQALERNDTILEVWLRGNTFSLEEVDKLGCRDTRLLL

With CC(NC(=O)Cn1c(NCCO)nc2ccccc21)C1CC2CCC1C2 (centres undefined) the IC50 [1] was > 14.6 µM (not active), the IC50 [2] was > 35 µM (not active) and the IC50 [3] was > 43.8 µM (not active). For the same compound, the IC50 [4] was > 35 µM (not active).
For Nc1cc(-c2ccc(Cl)cc2)nn1S(=O)(=O)c1c(F)c(F)c(F)c(F)c1F, the IC50 [5] was > 100 µM (not active), the IC50 [6] was > 100 µM (not active) and the IC50 [7] was > 100 µM (not active). The IC50 [8] was > 20 µM (inactive), the IC50 [9] was > 20 µM (inactive) and the IC50 [10] was > 20 µM (inactive). The IC50 [11] was > 20 µM (inactive).
In the case of Cc1ccc2nc(SCC(=O)Nc3ccc4c(c3)CCC4)n(-c3ccccc3)c(=O)c2c1, the CC50 [12] is reported as 130 µM (active), the CC50 [13] is reported as > 200 µM (active) and the IC50 [14] is reported as 7.73 µM (active).
For c1ccc(-c2nc(-c3ccccn3)c(-c3ccccn3)[nH]2)cc1, the IC50 [15] was > 17 µM (not active).
With O=C(COC(=O)Cc1ccc(S(=O)(=O)N2CCOCC2)s1)NCc1ccc(Cl)cc1 the EC50 [16] was > 500 µM (not active) and the EC50 [17] was 99.6 µM (active).
For O=C(O)c1ccccc1OCCOCCOc1ccccc1C(=O)O, the IC50 [18] was 18.2 µM (not active).
For O=C(COc1ccc(Cl)cc1Cl)Nc1nnc(-c2ccco2)s1, the EC50 [19] was 17 µM (active).
With NC(=NO)c1nc(N2CCCCC2)nc(N2CCCCC2)n1 the EC50 [20] was > 50 µM (not active).
With Cc1ccccc1CNc1ncnc2cc(Cl)ccc12 the IC50 [21] was 3.84 µM (active) and the IC50 [22] was 2.38 µM (active).
For O=C(N/N=C/c1cc(O)ccc1Br)c1cccnc1, the EC50 [23] was 1.85 µM (active), the EC50 [24] was 165 µM (active) and the IC50 [25] was 4.8 µM (active). The EC50 [26] was > 350 µM (not active), the EC50 [27] was 4.86 µM (active) and the IC50 [28] was 6.35 µM (active).
For Cn1c(=O)c2c(nc(N/N=C/c3ccco3)n2C)n(C)c1=O, the EC50 [29] was 88.9 µM (not active).
